Legend:
[1] = tested on: Human Peripheral Blood CD4+ T cells
Method: (§1) Uncoupled respiration measurements were measured in adherent cells epithelioid carcinoma Panc-1 cells (ATCC, CRL-1469) with FCCP. Cells were cultured in Dulbecco's Modified Eagle's Medium (DMEM) supplemented with 10% FBS at 37 C, 5% CO2 incubator according to supplier information. Day before the assay, cells were detached using Trypsin-EDTA solution and seeded in XFe96 cell culture miniplates (Agilent) at 10,000 cells/well. Cells were incubated for 18 hr at 37 C, 5% CO2 incubator. To measure OCR, cells were washed, and cell culture medium was replaced by XF DMEM pH 7.4 supplemented with 10 mM glucose, 2 mM glutamine and 1 mM pyruvate.

[2] = tested on: epithelioid carcinoma Panc-1 cells; conditions: 2 μM FCCP, FIGS. 1A-1C
Method: as §1

[3] = tested on: Human Peripheral Blood NK cells; conditions: 1.5, 2, 2.5 or 3 μM, FIGS. 12A-12B
Method: NK cells were cultured as described herein (e.g., in Example 1).

FCCP was tested, and the “OCR after the rotenone+antimycin A injection” value ([1]; T cells, FIGS. 2B, 3B) was “overestimation of OCR”, the “stability of uncoupled respiration during the 3 min of the measurement” value ([1]; T cells, after oligomycin, FIGS. 2A, 2C, 3A, 3C) was “inconsistent uncoupled respiration” and the “maximal respiration in titration of uncoupler” value ([1]; naïve CD4+ T cells, 0.5, 1, 1.5, 2, 2.5 or 3 μM, FIGS. 4A-4B) was “not as robust nor was there an increase in a dose-dependent manner”. The “oxygen consumption on addition of uncoupler” value [2] was “robust increase in oxygen consumption” and the “maximal respiration in titration of uncoupler” value [3] was “not as robust”.

From US12704502B2, “Methods and systems for determining metabolic poise and capacity of living cells” (AGILENT TECHNOLOGIES, INC., priority 2021, dated 2026)
